Columns and labels:
Assay in all cases: relative viability (nuclei count vs DMSO), 5 days (fraction); higher = more cells survive
PAC-1 + Trametinib = compound: C=CCc1cccc(/C=N/NC(=O)CN2CCN(Cc3ccccc3)CC2)c1O [PAC-1] + CC(=O)Nc1cccc(-n2c(=O)n(C3CC3)c(=O)c3c(Nc4ccc(I)cc4F)n(C)c(=O)c(C)c32)c1 [Trametinib] (partner 0.02 µM)
How it was run: (§1)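 For relative viability, nuclei counts in treated wells were divided by those in vehicle wells. Lung cancer cell lines had been pin-tool dosed in 1536-well plates the day after seeding and cultured for 5 days, then fixed and stained in one step (final 0.05% Triton X-100, 1% formaldehyde, 1 ug/ml Hoechst) and imaged at 4×. Doses were one drug alone or a fixed anchor-drug dose plus five library-drug doses (not always all listed) in √10 steps, and values are duplicate-plate medians.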

Ibrutinib + Luminespib = compound: C=CC(=O)N1CCC[C@@H](n2nc(-c3ccc(Oc4ccccc4)cc3)c3c(N)ncnc32)C1 [Ibrutinib] + CCNC(=O)c1noc(-c2cc(C(C)C)c(O)cc2O)c1-c1ccc(CN2CCOCC2)cc1 [Luminespib] (partner 0.01 µM)
How it was run: as §1

PAC-1 + Phenformin = compound: C=CCc1cccc(/C=N/NC(=O)CN2CCN(Cc3ccccc3)CC2)c1O [PAC-1] + N=C(N)NC(=N)NCCc1ccccc1 [Phenformin] (partner 250 µM)
How it was run: as §1

Ibrutinib + Bortezomib = compound: C=CC(=O)N1CCC[C@@H](n2nc(-c3ccc(Oc4ccccc4)cc3)c3c(N)ncnc32)C1 [Ibrutinib] + CC(C)C[C@H](NC(=O)[C@H](Cc1ccccc1)NC(=O)c1cnccn1)B(O)O [Bortezomib] (partner 0.002 µM)
How it was run: as §1

Row | Cell Line | relative viability (PAC-1 + Trametinib; first compound 0.02 µM) | relative viability (PAC-1 + Trametinib; first compound 0.06325 µM) | relative viability (PAC-1 + Trametinib; first compound 0.2 µM) | relative viability (PAC-1 + Trametinib; first compound 2 µM) | relative viability (Ibrutinib + Luminespib; first compound 0.005 µM) | relative viability (Ibrutinib + Luminespib; first compound 0.01581 µM) | relative viability (Ibrutinib + Luminespib; first compound 0.05 µM) | relative viability (Ibrutinib + Luminespib; first compound 0.1581 µM) | relative viability (Ibrutinib + Luminespib; first compound 0.5 µM) | relative viability (PAC-1 + Phenformin; first compound 0.02 µM) | relative viability (PAC-1 + Phenformin; first compound 0.06325 µM) | relative viability (PAC-1 + Phenformin; first compound 0.2 µM) | relative viability (PAC-1 + Phenformin; first compound 2 µM) | relative viability (Ibrutinib + Bortezomib; first compound 0.005 µM) | relative viability (Ibrutinib + Bortezomib; first compound 0.01581 µM) | relative viability (Ibrutinib + Bortezomib; first compound 0.05 µM) | relative viability (Ibrutinib + Bortezomib; first compound 0.1581 µM) | relative viability (Ibrutinib + Bortezomib; first compound 0.5 µM)
1 | 201T | 0.732 | 0.717 | 0.687 | 0.717 | 1.03 | 1.02 | 1.07 | 1.05 | 0.953 | 0.43 | 0.47 | 0.468 | 0.453 | 1.05 | 1.06 | 1.13 | 1.09 | 1.09
2 | A549 |  |  |  |  |  |  |  |  |  | 0.22 | 0.167 | 0.139 | 0.171 |  |  |  |  | 
3 | A-427 | 0.767 | 0.778 | 0.817 | 0.796 | 1.09 | 0.85 | 0.832 | 1.1 | 1.01 | 0.328 | 0.384 | 0.338 | 0.279 | 0.906 | 0.962 | 0.981 | 0.985 | 0.916
4 | ABC-1 |  |  |  |  | 0.476 |  | 0.68 |  | 0.562 | 0.217 | 0.231 | 0.24 | 0.21 | 0.36 | 0.271 | 0.33 | 0.33 | 0.306
5 | BEN | 1.08 | 1.09 | 1.17 | 0.923 |  | 0.292 | 0.318 | 0.307 | 0.462 | 0.273 | 0.282 | 0.266 | 0.302 | 0.54 | 0.828 | 0.667 | 0.57 | 0.572
6 | CAL-12T | 0.329 | 0.359 | 0.353 | 0.386 | 0.417 | 0.14 | 0.416 | 0.276 | 0.302 | 0.6 | 0.657 | 0.542 | 0.571 | 0.988 | 0.915 | 0.836 | 0.884 | 0.693
7 | COR-L23 | 0.586 | 0.66 |  | 0.673 | 0.605 | 0.681 | 0.722 | 0.597 | 0.622 | 0.458 | 0.434 | 0.423 | 0.429 | 1.13 | 0.992 | 0.983 | 0.917 | 1.1
8 | COR-L 105 | 0.436 | 0.453 | 0.47 | 0.355 | 0.765 | 0.802 | 0.744 | 0.883 | 0.599 | 0.465 | 0.484 | 0.428 | 0.455 | 0.514 | 0.607 | 0.512 | 0.683 | 0.348
9 | Calu-6 |  |  |  |  |  |  |  |  |  |  |  |  |  | 0.992 | 0.959 | 0.934 | 1.11 | 0.932
10 | ChaGo-K-1 | 0.951 | 0.917 | 0.837 | 0.94 | 0.586 | 0.409 | 0.53 | 0.655 | 0.556 | 0.462 | 0.493 | 0.513 | 0.439 | 0.906 | 1.04 | 0.927 |  | 0.959
11 | EBC-1 |  |  |  |  |  |  |  |  |  |  |  |  |  | 0.693 | 0.524 | 0.555 | 0.668 | 0.486
12 | EKVX | 0.369 | 0.314 | 0.314 | 0.35 | 0.66 | 0.784 | 0.856 | 0.81 | 0.547 | 0.232 | 0.244 | 0.226 | 0.195 | 0.894 | 0.929 | 0.975 | 0.925 | 0.489
13 | EMC-BAC-2 | 1.07 | 0.925 | 0.913 | 0.849 | 1.15 | 1.14 | 1.25 | 1.15 | 1.05 | 0.496 | 0.556 | 0.52 | 0.511 | 1 | 1 | 0.997 | 1.05 | 1.01
14 | EPLC-272H | 0.251 | 0.322 | 0.301 | 0.28 | 0.485 | 0.433 | 0.211 | 0.313 | 0.211 | 0.298 | 0.339 | 0.241 | 0.288 |  | 0.881 | 0.924 | 0.839 | 0.753
15 | H3255 | 0.713 | 0.746 | 0.587 | 0.512 | 1.13 | 0.945 |  | 1.19 | 0.704 | 0.398 | 0.394 | 0.334 | 0.308 | 0.583 | 0.889 | 0.51 | 0.617 | 0.313
16 | HARA | 0.632 | 0.697 | 0.621 | 0.473 | 0.975 | 0.748 | 0.548 | 0.746 | 0.324 | 0.438 | 0.476 | 0.446 | 0.507 | 1.02 | 1.14 | 0.987 | 0.976 | 0.937
17 | HCC-15 | 0.373 | 0.38 | 0.419 | 0.41 | 0.362 | 0.278 | 0.488 | 0.308 | 0.243 | 0.466 | 0.487 | 0.457 | 0.491 | 1.13 |  |  |  | 1.1
